The source of these data is article PMC7778606, “Development of the phenylpyrazolo[3,4-d]pyrimidine-based, insulin-like growth factor receptor/Src/AXL-targeting small molecule kinase inhibitor” (Theranostics, 2021).

Like-named read-outs stand apart in the source and are kept apart here.

As usually defined, the IC50 is the concentration that gives 50% inhibition.

The test system of one series is A549 cells. Put plainly: MTT assay, viability of A549 cells. It is filed as cell-based. The following applies: Homo sapiens. The protocol:
(§1) Cells were seeded into 96-well plates at a density of 1-2 × 10^3 cells/well and incubated for 24 h. Cells were treated with vehicle or various concentrations of test compounds for two (PC9 and PC9/ER cells) or three (other cells) days. Cells were further incubated with MTT solution (final concentration of 500 μg/mL) for 4 h at 37 °C. The formazan products were dissolved in dimethyl sulfoxide (DMSO), and the absorbance was measured at 570 nm. The data are presented as a percentage of the control group.

A further series relates to H522 cells. Put plainly: MTT assay, viability of H522 cells. It is filed as cell-based. The settings on record: Homo sapiens, NCI-H522, 72 h, three days, read-out: IC50 against the viability. The protocol:
as §1
In general terms: Tetrazolium assays rely on reduction of a dye to a coloured formazan, in cell work by metabolically active cells.

The next series can be described thus: Toxicity test in mice. It is filed as in vivo, FVB mice. The protocol: Blood was collected from euthanized mice under isoflurane-induced deep anesthesia by cardiac puncture. After allowing blood coagulation at 4 °C, serum was collected by centrifugation at 3,000 rpm for 10 min at 4 °C. Analysis of the serum levels of alanine aminotransferase (ALT) and aspartate aminotransferase (AST) was performed using a veterinary hematology analyzer (Fuji DRI-Chem 3500s, Fujifilm, Tokyo, Japan) according to the manufacturer' s protocols.

The subject of the next series is IGF-1R. Put plainly: Western blot, phosphorylation of IGF-1R in H1944 and A549 cells. It is filed as cell-based, human. The settings on record: 2.5 μM. The protocol: Before harvesting, the cells were stimulated with 10% FBS for 20 min. Total cell lysates were prepared with modified radioimmunoprecipitation assay lysis buffer (50 mM Tris-HCl [pH 7.4], 150 mM NaCl, 1 mM EDTA, 0.25% sodium deoxycholate, 1% Triton X-100, 100 mM NaF, 5 mM Na3VO4, 1 mM PMSF, 1 μg/mL aprotinin, 1 μg/mL leupeptin, and 1 μg/mL pepstatin). Equal amounts of protein (20 μg) were subjected to 8% SDS-PAGE and electrically transferred onto polyvinylidene difluoride membranes (Bio-Rad Laboratories, Hercules, CA, USA). Membranes were blocked with blocking buffer (3% BSA in Tris-buffered saline containing 0.1% Tween-20 [TBST]) for 1 h at room temperature. The membranes were incubated with primary antibodies diluted in 3% BSA in TBST (1:1,000) overnight at 4 °C, washed multiple times with TBST, and incubated with secondary antibodies diluted in 3% nonfat dry milk in TBST (1:5,000) for 1 h at room temperature. The membranes were washed multiple times with TBST and visualized using an enhanced chemiluminescence detection kit (Thermo Fisher Scientific). Densitometric analysis was performed using ImageJ software.
In general terms: In western blotting, separated proteins are transferred to a membrane and probed.

In another series the test system is H1299/CsR cells. In words: MTT assay, viability of cisplatin-resistant H1299/CsR cells. It is filed as cell-based. The settings on record: Homo sapiens, NCI-H1299, 72 h, three days, read-out: IC50 against the viability. An excerpt:
Human lung cancer cell lines (A549, H1299, H1993, H1944, H226B, H226Br, H460, H522, HCC15, and PC9), a diploid human lung fibroblast cell line (Wi38), and the Lewis lung carcinoma (LLC) cell line were purchased from the American Type Culture Collection (ATCC, Manassas, VA, USA) or kindly provided by Dr. John V. Heymach (MD Anderson Cancer Center, Houston, TX, USA). Human retinal pigment epithelial (RPE) cells were kindly provided by Dr. Jeong Hun Kim (College of Medicine, Seoul National University, Seoul, Republic of Korea). HT-22 cells were provided by Dr. Dong Gyu Jo (College of Pharmacy, Sungkyunkwan University, Suwon, Republic of Korea). Lung cancer cells were cultured in RPMI 1640 medium supplemented with 10% fetal bovine serum (FBS) and antibiotics (Welgene, Gyeongsan-si, Republic of Korea). LLC, HT-22, and Wi38 cells were maintained in DMEM supplemented with 10% FBS and antibiotics. RPE cells were maintained in DMEM/F12 supplemented with 10% FBS and antibiotics. […]
Cells were seeded into 96-well plates at a density of 1-2 × 10^3 cells/well and incubated for 24 h. […] The formazan products were dissolved in dimethyl sulfoxide (DMSO), and the absorbance was measured at 570 nm. […]

The next series has as its system H226Br cells. Put plainly: MTT assay, viability of H226Br cells. It is filed as cell-based. The settings on record: Homo sapiens, 72 h, three days, read-out: IC50 against the viability. The procedure: as §1
Another series can be described thus: Water solubility. It is filed as physicochemical.
The subject of a further series is H1944 cells. In words: MTT assay, viability of H1944 cells. It is filed as cell-based. The following applies: Homo sapiens, NCI-H1944, 72 h, three days, read-out: IC50 against the viability. The procedure: as §1
The subject of a further series is H226B cells. In words: MTT assay, viability of H226B cells. The following applies: Homo sapiens, 72 h, three days, read-out: IC50 against the viability. It is filed as cell-based. The procedure: as §1
The subject of series [1] is Wi38, RPE, and HT-22 cells. Put plainly: MTT assay, viability of normal cells. It is filed as cell-based, human, mouse. The protocol:
as §1

A further series has as its target T1, AURKA (Homo sapiens, UniProt O14965).
T1 construct: purchased DiscoverX KINOMEscan
In words: KINOMEscan competition binding assay. The following applies: LL6 at 10 μM; read-out: Percent Control. The procedure:
[…] To briefly summarize, Kd was measured by a competition binding assay that quantitatively measures the ability of a compound to compete with an immobilized ligand. […] […] See more details in the cited references [39]-[42] and see also at www.discoverx.com.

The mark [2] stands for this setting: LL6-treated mice vs vehicle-treated control.

T1 sequence (O14965 whole entry): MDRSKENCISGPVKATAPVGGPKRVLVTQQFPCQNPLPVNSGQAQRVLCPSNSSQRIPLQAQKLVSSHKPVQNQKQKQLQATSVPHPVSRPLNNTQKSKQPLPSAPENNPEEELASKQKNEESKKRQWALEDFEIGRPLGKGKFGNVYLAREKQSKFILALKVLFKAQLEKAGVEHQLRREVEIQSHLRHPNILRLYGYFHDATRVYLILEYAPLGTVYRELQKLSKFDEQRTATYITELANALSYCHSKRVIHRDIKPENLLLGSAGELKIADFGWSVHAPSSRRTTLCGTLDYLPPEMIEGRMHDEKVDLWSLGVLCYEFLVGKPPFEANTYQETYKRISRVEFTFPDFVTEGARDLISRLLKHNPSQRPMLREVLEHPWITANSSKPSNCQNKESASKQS

For the compound `Nc1ncnc2c1c(-c1ccc(Cl)cc1)nn2CCn1cc(COc2ccc(Nc3nccc(Nc4cnc5ccccc5c4)n3)cc2)nn1` [LL6], the activity at 10 µM in the series with A549 cells (72 h, A549, MTT assay, 10 μM, read-out: % cells growth at 10 μM) worked out at 6.4%. Also, the IC50 in the series with A549 cells (72 h, A549, MTT assay, three days, read-out: IC50 against the viability (Table S4)) is 6630 nM; in the series with A549 cells (A549, MTT assay, read-out: IC50 against the viability of A549 cells (Table S2)) it was 2590 nM; with H522 cells, 3550 nM; in the series on H1299/CsR cells it was 1070 nM; in the series with H226Br cells, 4320 nM; with H1944 cells it was 1020 nM. In the series on H226B cells, the IC50 was 1370 nM. In the series “Toxicity test in mice” (H&E-stained tissues), the “histological alterations in major organs, including the lung and liver” value is reported as “did not cause detectable histological alterations”. For the same compound, the “serum ALT level” value in the series “Toxicity test in mice” (setting [2]) was “remained unchanged”. Also, in “Toxicity test in mice” (setting [2]), the “serum AST level” value is recorded as “remained unchanged”. In addition, the body weight result in the series “Toxicity test in mice” (mice, LL6 20, 40, and 80 mg/kg daily for 2 weeks) is reported as “remained unchanged”. Besides, the “activation (phosphorylation) of IGF-1R” value in the series on IGF-1R is “efficiently suppressed”. Moreover, the water solubility entry in the series “Water solubility” is given as “poor”. For the same compound, in series [1], the “cytotoxicity in normal cells compared with the LDB combination” value is “markedly less cytotoxicity”. Moreover, the remaining binding at 10 µM on AURKA is 48%.
